According to PubChem BioAssay (NCI):
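The compound was tested at five concentrations on cells cultured in 96-well plates, with a 48-hour exposure period. TGI denotes the concentration required for complete inhibition of growth.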

Experiments:
Experiment in all cases: NCI-60 cell line screen, 48 h
786-0 renal = tested on: 786-0 renal
NCI-H23 lung = tested on: NCI-H23 lung
RXF 393 renal = tested on: RXF 393 renal
UACC-62 melanoma = tested on: UACC-62 melanoma

| SMILES | TGI (786-0 renal) [µM] | TGI (NCI-H23 lung) [µM] | TGI (RXF 393 renal) [µM] | TGI (UACC-62 melanoma) [µM] |
| --- | --- | --- | --- | --- |
| C=C1C(=O)OC2/C=C(\C)CC/C=C(/C)CC(OC(=O)/C(=C/CO)CO)C12 (configuration not stated) | 88.8 | 39.1 | 23.7 | 33.1 |
| Nn1c(CNc2ccc(-c3nnc(Nc4ccc(Cl)cc4)n3N)cc2)nnc1Nc1ccc(Cl)cc1 | > 100 | > 100 | > 100 | > 100 |
| Cn1c(-c2ccccc2)cc(-c2ccc3c(c2)OCO3)c1-c1cccs1 | > 100 | > 100 | > 100 | > 100 |
| OC(c1cc(C(O)(C(F)(F)F)C(F)(F)F)ncn1)(C(F)(F)F)C(F)(F)F | > 10 | > 10 | > 10 | > 10 |
| NS(=O)(=O)c1ccc(NNC(=O)c2cccc3c(=O)c4ccccc4[nH]c23)cc1 | > 100 | > 100 | > 100 | > 100 |
| O=C(ON=c1c2ccccc2ccc2ccccc12)c1cc([N+](=O)[O-])cc([N+](=O)[O-])c1 | > 100 | > 100 | > 100 | > 100 |
| CC1=NN(c2nc(N)nc(CS(C)(=O)=O)n2)C(C)(C)C1 | > 100 | > 100 | > 100 | > 100 |
| COC(=O)N1CC[C@@H]2CCC=C(c3cccc4c3OCO4)[C@@H]21 | > 100 | > 100 | > 100 | > 100 |
| Cc1nn2c(N)cc(=O)nc2nc1/C=C/c1ccc(N(C)C)cc1 | > 100 | > 100 | > 100 | > 100 |
| C=CCCCCOC1C=CC(OC(C)=O)C(COC(C)=O)O1 (configuration not stated) | > 100 | > 100 | > 100 | > 100 |
| Oc1c(C(O)(c2ccccc2)c2ccc3ccccc3c2O)ccc2ccccc12 | > 69 | 23.1 | 25.3 | 22.8 |
| Cc1cccc2c1Oc1cc(Cl)ccc1C2NC(=O)CCN1CCCCC1 (configuration not stated) | 28 | 37.5 | – | 30 |
| CCOC(=O)c1ccc(N=C2SC(=S)N(c3ccc(F)cc3)C2=Nc2ccc(C(=O)OCC)cc2)cc1 | 31.6 | 44.2 | 23.3 | 21.5 |
| CN1CN(c2ccccc2)C2(CCNCC2)C1=O | > 100 | > 100 | > 100 | > 100 |
| CC(C)(C)OC(=O)N1C(C2=COc3ccccc3O2)=COc2ccccc21 | > 100 | 95.1 | 22.5 | 32.6 |
| CSC1=N/C(=C\c2cccs2)C(=O)N1CN1CCOCC1 | > 100 | > 100 | – | > 100 |
| C/C(Cl)=N\OC(=O)Nc1ccc([N+](=O)[O-])cc1 | 18.4 | 49.9 | 30.4 | 48.6 |
| Clc1cc2nc(C3CCCO3)[nH]c2cc1Cl (configuration not stated) | > 100 | > 100 | > 100 | > 100 |
| COc1ccc2c(c1)/C(=C(\C(Cl)=C(\Cl)N1CCCCC1)[N+](=O)[O-])N2 | > 100 | > 100 | > 100 | > 100 |
| CCCCC1Cc2cc(O)ccc2-c2n1c1cc(O)ccc1[n+]2C (configuration not stated) (tested in a mixture with another compound) | > 100 | > 76.2 | > 90.3 | > 81.5 |
| C1CNCCN2CCCNCCN(C1)CC2 | > 100 | > 100 | > 100 | > 100 |
| CCCCc1ccc(Nc2nc3c(ncn3C3OC(COC(C)=O)C(OC(C)=O)C3OC(C)=O)c(=O)[nH]2)cc1 (configuration not stated) | 32 | 32.5 | 41.7 | 34.7 |
| O=C1/C(=C/c2ccc(O)cc2)NC(=S)N1CN1CCCCC1 | > 100 | > 100 | – | > 100 |
| CCOC(=O)C(SCCO)C(C(=O)OCC)n1ccc(N)nc1=O (configuration not stated) | > 100 | > 100 | – | > 100 |
| COc1ccc2nc(-c3ccc(OC(=O)N(C)C)cc3)cn2c1 | > 100 | > 100 | – | > 100 |
| N#CS/C(C(Cl)=C(Cl)Cl)=C(/Cl)[N+](=O)[O-] | – | 7.95 | 2.98 | 17.5 |
| O=C(CC(=O)c1ccncc1)c1ccccc1 | > 100 | > 100 | > 100 | > 100 |
